Measured values published in patent US20240041859A1, “METHODS OF TREATING AND PREVENTING KIDNEY DISEASE” (Washington University, priority 2020, published 2024).
pIC50: −log10 of the molar value.

Columns and labels:
wild-type (HK2) cells = assay: centrosome clustering inhibitors on wild-type cells; format: cell-based
Description: (§1) Since this approach worked in ADPKD cells, mouse models were subsequently used to test the efficacy of the inhibitors in vivo.

pkd1-null (WT9-12) cells = assay: centrosome clustering inhibitors on ADPKD cell line; format: cell-based; settings: for mitotic progression / spindle assembly checkpoint (SAC) and cell death of cells with CA: cells with CA; for centrosome clustering in cells with CA: pkd1-null (WT9-12) cells
Description: as §1

PKD1^RC/RC mice [1] = assay: slow-onset ADPKD mouse model, five-month treatment from six months of age; format: in vivo
Description: To test the inhibitors, a slow-onset mouse model of ADPKD was needed that would allow for an extended period of time to treat these mice with the centrosome clustering inhibitors. The widely used slow-onset ADPKD model called the PKD1^RC/RC mouse (Hopp et al, JCI, 2012) was chosen for the small molecule inhibitor tests. These mice develop cysts slowly, such that kidney size increases around 6 months of age, and kidney function declines—as indicated by elevated blood-urea nitrogen (BUN) levels—around 9 months of age. The mice also show extensive cystogenesis as they age. […] Thus, this model was ideal for testing the centrosome clustering inhibitors. Using the slow-onset ADPKD model, the optimal effective time-course for inhibition of centrosome clustering using CCB02 and PJ-34 can be determined. Example 1 describes treatment at timepoints (e.g., beginning at six months of age, beginning at nine months, and up to eleven months of age) and for periods of time (e.g., every other day for sixty days or two months, every two days for five months). PKD1^RC/RC mice were treated with the inhibitors beginning at six months of age—at a stage when their kidneys have yet to dramatically increase in size and show functional decline (see e.g., FIG. 8). Centrosome clustering inhibitor CCB02 was administered by gavage every two days for a total of five months. Also included in the analysis was the only FDA-approved drug for ADPKD, tolvaptan. […] Blood and urine were collected at one-month intervals to monitor kidney function (see e.g., FIG. 8).

PKD1^RC/RC mice [2] = assay: slow-onset ADPKD mouse model, sixty-day treatment followed by three-month washout; format: in vivo
Description: To test the inhibitors, a slow-onset mouse model of ADPKD was needed that would allow for an extended period of time to treat these mice with the centrosome clustering inhibitors. The widely used slow-onset ADPKD model called the PKD1^RC/RC mouse (Hopp et al, JCI, 2012) was chosen for the small molecule inhibitor tests. These mice develop cysts slowly, such that kidney size increases around 6 months of age, and kidney function declines—as indicated by elevated blood-urea nitrogen (BUN) levels—around 9 months of age. The mice also show extensive cystogenesis as they age. […] Thus, this model was ideal for testing the centrosome clustering inhibitors. Using the slow-onset ADPKD model, the optimal effective time-course for inhibition of centrosome clustering using CCB02 and PJ-34 can be determined. Example 1 describes treatment at timepoints (e.g., beginning at six months of age, beginning at nine months, and up to eleven months of age) and for periods of time (e.g., every other day for sixty days or two months, every two days for five months). […] PKD1^RC/RC mice were administered centrosome clustering inhibitor CCB02 beginning at nine months and up to eleven months of age (see e.g., FIG. 12A). CCB02 was administered by gavage every other day for sixty days (see e.g., FIG. 8). The treatment was arrested for three months, and animals were monitored for three additional months to determine if cysts returned once the compounds are no longer administered.

CPAP-tubulin interaction = settings: binding to tubulin, competing for the CPAP binding site of P-tubulin; cited from earlier work
[3] = annually; cited from earlier work
[4] = five months treatment vs two-month scheme

COc1ncc2cc3ccccc3nc2c1C#N [CCB02]
normal mitotic spindle formation in cells with normal centrosome number (wild-type (HK2) cells): not impacting normal mitotic spindle formation | mitotic progression (pkd1-null (WT9-12) cells): delay in mitotic progression | spindle assembly checkpoint (SAC) and cell death of cells with CA (pkd1-null (WT9-12) cells): activation of the spindle assembly checkpoint (SAC), leading to cell death | centrosome clustering in cells with CA (pkd1-null (WT9-12) cells): inhibited centrosome clustering | cyst formation (PKD1^RC/RC mice [1]; five months treatment): better results in comparison to the FDA-approved drug tolvaptan | fibrosis markers (PKD1^RC/RC mice [1]; five months treatment): significant reduction in fibrosis markers | effect on cystogenesis (PKD1^RC/RC mice [1]; [4]): even greater effect on cystogenesis | effect on renal fibrosis (PKD1^RC/RC mice [1]; [4]): even greater effect on renal fibrosis | cyst formation at eleven months (PKD1^RC/RC mice [2]; gavage every other day for sixty days, compared to untreated mice): reduction in cyst formation | BUN (PKD1^RC/RC mice [2]; three months post-washout): no increase | cyst re-formation (PKD1^RC/RC mice [2]; three months post-washout): cysts did not reform | fibrosis (PKD1^RC/RC mice [2]; three months post-washout): fibrosis was not evident | serum creatinine (PKD1^RC/RC mice [2]; three months post-washout): no increase | pIC50 (CPAP-tubulin interaction): 6.16

CN(C)CC(=O)Nc1ccc2[nH]c(=O)c3ccccc3c2c1.Cl [PJ-34]
normal mitotic spindle formation in cells with normal centrosome number (wild-type (HK2) cells): not impacting normal mitotic spindle formation | mitotic progression (pkd1-null (WT9-12) cells): delay in mitotic progression | spindle assembly checkpoint (SAC) and cell death of cells with CA (pkd1-null (WT9-12) cells): activation of the spindle assembly checkpoint (SAC), leading to cell death | centrosome clustering in cells with CA (pkd1-null (WT9-12) cells): inhibited centrosome clustering

Cc1ccccc1C(=O)Nc1ccc(C(=O)N2CCCC(O)c3cc(Cl)ccc32)c(C)c1 (centres unmarked) [tolvaptan]
fibrosis markers (PKD1^RC/RC mice [1]; five months treatment): significant reduction in fibrosis markers | reduction of the rate of decline in renal function [3]: 2%-3%
